Source: ChEMBL document CHEMBL4190379 (Bioorg Med Chem Lett, 2018)

Key:
[1] = target: Protein polybromo-1 (Homo sapiens) (UniProt Q86U86); assay: Binding affinity to human PBRM1 bromodomain 2 expressed in bacterial system assessed as remaining binding level at 1 uM by BROMOscan assay relative to control
MX1 = assay: Antiproliferative activity against human MX1 cells incubated for 72 hrs by cell-titer Glo assay; type: functional, cell-based; conditions: MX1, 72 h
[2] = Permeability of the compound by PAMPA method; type: ADME; conditions: read-out: permeability
Mus musculus = assay: Unbound clearance in mouse at 10 mg/kg, po; type: ADME, organism-based; conditions: in vivo
[3] = target: T1, ATPase family AAA domain-containing protein 2 (Homo sapiens) (UniProt Q6PL18); assay: Binding affinity to human ATAD2A expressed in bacterial system assessed as remaining binding level at 1 uM by BROMOscan assay relative to control
T1 sequence (whole entry): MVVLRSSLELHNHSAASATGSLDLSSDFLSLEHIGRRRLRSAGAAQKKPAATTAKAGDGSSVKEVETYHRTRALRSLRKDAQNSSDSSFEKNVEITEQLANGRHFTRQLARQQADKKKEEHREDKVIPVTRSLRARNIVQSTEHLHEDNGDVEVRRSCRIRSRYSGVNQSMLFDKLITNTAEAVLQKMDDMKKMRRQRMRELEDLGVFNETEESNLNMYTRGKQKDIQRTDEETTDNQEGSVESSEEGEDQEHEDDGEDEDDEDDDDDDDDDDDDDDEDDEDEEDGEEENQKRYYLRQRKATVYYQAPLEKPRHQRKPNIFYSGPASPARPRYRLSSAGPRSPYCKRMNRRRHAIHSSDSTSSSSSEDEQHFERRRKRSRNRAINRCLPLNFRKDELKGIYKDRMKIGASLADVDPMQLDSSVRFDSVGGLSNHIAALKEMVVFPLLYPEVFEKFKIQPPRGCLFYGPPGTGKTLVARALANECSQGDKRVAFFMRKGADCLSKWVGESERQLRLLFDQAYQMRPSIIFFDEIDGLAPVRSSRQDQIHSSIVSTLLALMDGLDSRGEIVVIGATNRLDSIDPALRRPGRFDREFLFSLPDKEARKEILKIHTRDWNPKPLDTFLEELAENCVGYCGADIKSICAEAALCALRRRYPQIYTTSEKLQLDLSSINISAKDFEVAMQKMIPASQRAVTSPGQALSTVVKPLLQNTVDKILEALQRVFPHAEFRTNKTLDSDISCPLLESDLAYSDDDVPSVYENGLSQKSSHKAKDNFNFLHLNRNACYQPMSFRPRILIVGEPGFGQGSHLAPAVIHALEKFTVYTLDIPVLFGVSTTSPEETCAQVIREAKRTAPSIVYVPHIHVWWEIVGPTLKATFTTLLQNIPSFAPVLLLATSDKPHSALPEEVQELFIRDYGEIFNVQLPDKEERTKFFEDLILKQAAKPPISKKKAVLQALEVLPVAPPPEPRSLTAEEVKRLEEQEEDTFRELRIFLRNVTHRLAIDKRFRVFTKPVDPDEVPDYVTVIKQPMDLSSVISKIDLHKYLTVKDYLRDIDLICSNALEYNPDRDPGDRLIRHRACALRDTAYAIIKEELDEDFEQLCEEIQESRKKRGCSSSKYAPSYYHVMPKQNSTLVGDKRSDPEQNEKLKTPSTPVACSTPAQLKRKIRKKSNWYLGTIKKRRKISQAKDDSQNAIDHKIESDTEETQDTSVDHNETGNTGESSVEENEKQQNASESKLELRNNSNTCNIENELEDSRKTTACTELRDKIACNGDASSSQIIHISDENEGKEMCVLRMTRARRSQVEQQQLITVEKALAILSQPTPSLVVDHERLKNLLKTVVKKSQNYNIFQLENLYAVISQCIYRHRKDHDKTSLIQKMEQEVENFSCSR

[4] = target: Chromatin remodeling regulator CECR2 (Homo sapiens) (UniProt Q9BXF3); assay: Binding affinity to human CECR2 expressed in bacterial system assessed as remaining binding level at 1 uM by BROMOscan assay relative to control
[5] = target: Histone acetyltransferase p300 (Homo sapiens) (UniProt Q09472); assay: Binding affinity to human EP300 expressed in bacterial system assessed as remaining binding level at 1 uM by BROMOscan assay relative to control
Chain of Histone acetyltransferase p300 (Homo sapiens) (Q09472 whole entry): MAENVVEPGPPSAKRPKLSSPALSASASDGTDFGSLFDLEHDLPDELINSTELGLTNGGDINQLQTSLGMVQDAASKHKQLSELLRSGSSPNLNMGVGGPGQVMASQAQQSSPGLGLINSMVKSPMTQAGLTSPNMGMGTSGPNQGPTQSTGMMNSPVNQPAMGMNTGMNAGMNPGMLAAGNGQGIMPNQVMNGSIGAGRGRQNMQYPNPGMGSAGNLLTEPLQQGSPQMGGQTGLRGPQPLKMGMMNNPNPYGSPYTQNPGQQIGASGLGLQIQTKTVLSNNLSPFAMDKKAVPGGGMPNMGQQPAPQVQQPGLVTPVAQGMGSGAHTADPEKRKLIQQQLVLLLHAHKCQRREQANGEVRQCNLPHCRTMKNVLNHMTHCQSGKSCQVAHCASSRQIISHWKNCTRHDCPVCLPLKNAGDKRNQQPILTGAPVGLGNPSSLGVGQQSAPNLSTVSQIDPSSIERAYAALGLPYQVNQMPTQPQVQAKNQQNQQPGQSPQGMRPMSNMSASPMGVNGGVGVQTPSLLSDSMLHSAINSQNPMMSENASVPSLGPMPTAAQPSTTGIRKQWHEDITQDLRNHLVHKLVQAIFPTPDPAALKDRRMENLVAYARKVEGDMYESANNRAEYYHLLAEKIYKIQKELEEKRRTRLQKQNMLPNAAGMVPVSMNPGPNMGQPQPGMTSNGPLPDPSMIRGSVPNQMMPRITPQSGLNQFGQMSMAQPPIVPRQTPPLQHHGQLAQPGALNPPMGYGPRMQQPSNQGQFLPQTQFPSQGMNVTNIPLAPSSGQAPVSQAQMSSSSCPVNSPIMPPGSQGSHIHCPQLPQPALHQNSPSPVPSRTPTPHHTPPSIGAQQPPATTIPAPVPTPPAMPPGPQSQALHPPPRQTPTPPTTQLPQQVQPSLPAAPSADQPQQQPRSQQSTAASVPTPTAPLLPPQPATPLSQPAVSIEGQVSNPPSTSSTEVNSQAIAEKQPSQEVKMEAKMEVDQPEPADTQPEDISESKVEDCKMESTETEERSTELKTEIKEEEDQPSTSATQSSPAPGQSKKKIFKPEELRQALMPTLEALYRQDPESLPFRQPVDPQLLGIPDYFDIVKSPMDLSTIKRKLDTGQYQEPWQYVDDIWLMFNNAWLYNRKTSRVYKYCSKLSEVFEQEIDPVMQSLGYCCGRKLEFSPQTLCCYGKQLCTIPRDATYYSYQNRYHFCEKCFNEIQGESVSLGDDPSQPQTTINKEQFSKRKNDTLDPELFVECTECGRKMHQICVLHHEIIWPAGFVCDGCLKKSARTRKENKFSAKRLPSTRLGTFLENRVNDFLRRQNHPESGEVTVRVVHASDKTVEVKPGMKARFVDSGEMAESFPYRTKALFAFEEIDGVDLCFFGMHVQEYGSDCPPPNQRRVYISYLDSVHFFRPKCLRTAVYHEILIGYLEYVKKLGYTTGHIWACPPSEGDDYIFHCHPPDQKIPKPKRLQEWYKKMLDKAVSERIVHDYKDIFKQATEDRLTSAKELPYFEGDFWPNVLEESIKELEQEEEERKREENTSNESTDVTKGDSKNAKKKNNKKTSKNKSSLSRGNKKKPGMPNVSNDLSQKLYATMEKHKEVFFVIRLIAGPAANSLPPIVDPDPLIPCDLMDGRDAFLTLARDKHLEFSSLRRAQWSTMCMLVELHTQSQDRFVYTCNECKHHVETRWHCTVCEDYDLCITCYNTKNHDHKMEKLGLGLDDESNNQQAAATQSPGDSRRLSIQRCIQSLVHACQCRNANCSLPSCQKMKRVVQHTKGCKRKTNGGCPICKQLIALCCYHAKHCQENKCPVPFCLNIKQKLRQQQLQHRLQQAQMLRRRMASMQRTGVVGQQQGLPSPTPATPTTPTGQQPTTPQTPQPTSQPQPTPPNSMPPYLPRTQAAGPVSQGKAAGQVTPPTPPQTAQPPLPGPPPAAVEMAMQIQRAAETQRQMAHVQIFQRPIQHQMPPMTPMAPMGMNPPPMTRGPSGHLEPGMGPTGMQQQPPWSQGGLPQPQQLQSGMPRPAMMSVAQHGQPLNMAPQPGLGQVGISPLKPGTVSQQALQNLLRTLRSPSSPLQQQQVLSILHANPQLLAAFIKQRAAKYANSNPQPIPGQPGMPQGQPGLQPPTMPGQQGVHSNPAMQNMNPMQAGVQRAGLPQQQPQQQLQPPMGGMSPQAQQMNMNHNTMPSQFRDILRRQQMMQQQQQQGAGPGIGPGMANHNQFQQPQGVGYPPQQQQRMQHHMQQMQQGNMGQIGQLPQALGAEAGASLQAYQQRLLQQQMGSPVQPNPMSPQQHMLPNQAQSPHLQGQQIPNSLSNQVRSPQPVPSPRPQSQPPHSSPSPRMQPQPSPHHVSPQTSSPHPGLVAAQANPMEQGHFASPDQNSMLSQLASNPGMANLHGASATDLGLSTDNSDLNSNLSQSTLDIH

[6] = target: T2, Transcription intermediary factor 1-alpha (Homo sapiens) (UniProt O15164); assay: Binding affinity to human TRIM24-phd-bromo expressed in bacterial system assessed as remaining binding level at 1 uM by BROMOscan assay relative to control
T2 sequence (whole entry): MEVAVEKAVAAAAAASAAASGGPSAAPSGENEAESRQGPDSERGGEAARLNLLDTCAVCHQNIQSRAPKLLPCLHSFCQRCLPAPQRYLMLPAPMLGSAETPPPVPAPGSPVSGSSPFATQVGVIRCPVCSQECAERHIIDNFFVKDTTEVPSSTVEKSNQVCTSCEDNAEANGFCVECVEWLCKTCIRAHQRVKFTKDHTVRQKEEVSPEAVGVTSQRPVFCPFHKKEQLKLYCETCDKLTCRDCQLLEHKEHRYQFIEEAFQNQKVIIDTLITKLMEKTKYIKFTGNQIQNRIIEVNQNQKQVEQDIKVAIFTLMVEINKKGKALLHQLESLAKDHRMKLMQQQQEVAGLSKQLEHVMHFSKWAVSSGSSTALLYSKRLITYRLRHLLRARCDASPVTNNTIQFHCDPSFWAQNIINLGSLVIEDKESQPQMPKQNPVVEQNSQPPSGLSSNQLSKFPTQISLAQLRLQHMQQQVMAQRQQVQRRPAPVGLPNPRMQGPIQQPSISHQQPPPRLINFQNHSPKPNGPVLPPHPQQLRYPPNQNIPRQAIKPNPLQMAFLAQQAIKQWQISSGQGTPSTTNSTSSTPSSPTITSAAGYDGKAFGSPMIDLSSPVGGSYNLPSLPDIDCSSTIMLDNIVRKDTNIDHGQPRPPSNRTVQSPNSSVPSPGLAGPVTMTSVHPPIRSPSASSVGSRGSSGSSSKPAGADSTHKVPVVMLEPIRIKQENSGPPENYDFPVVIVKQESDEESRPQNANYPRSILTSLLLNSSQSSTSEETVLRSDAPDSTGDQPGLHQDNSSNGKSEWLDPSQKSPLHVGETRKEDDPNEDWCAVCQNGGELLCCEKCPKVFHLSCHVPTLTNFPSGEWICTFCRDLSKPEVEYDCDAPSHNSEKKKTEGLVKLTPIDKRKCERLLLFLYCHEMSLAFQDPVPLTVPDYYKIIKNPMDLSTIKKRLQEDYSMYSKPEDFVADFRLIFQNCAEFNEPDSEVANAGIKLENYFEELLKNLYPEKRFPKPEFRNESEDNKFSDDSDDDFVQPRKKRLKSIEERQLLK

Chain of Protein polybromo-1 (Homo sapiens) (Q86U86 whole entry): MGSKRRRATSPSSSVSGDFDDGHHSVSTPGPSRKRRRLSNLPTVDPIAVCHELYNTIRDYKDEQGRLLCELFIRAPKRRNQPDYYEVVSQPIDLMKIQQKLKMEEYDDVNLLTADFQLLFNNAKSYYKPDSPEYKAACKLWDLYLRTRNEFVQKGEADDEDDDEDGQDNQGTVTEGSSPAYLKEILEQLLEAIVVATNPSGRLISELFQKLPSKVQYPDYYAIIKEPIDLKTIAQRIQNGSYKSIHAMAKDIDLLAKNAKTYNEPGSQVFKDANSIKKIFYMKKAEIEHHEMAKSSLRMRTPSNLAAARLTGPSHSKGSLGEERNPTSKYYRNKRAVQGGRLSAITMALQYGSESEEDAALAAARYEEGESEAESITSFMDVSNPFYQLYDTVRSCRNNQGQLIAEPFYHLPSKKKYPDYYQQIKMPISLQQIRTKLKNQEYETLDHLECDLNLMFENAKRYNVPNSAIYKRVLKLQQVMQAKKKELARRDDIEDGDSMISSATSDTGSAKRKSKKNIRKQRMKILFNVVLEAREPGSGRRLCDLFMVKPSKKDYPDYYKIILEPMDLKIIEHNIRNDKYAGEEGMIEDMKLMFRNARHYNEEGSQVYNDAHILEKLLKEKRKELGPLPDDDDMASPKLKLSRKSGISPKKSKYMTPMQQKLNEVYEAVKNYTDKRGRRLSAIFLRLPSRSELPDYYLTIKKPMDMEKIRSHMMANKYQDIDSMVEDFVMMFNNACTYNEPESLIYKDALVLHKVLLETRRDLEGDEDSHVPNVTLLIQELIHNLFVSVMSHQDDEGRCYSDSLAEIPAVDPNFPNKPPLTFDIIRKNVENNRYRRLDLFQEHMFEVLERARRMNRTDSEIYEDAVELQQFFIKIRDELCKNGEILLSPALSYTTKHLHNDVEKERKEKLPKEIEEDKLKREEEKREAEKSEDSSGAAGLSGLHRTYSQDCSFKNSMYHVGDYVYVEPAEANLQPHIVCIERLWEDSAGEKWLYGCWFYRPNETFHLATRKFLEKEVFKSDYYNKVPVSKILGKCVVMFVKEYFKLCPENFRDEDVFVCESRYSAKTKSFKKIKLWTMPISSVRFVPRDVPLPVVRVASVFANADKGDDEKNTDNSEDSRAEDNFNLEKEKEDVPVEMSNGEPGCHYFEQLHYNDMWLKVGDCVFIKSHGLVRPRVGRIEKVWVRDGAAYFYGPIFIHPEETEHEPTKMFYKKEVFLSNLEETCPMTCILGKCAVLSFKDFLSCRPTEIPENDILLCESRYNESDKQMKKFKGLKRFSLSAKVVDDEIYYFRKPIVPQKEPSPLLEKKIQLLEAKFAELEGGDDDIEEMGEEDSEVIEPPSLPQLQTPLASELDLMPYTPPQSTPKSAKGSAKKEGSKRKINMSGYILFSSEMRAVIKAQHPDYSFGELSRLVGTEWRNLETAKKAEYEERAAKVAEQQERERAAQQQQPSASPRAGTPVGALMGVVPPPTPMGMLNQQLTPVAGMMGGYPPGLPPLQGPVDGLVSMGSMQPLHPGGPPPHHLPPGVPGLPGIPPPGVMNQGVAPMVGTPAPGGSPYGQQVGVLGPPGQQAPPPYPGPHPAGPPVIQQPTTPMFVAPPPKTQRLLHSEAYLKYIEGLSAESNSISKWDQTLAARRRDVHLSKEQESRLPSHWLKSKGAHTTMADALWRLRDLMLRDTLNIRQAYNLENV

SMILES | Activity [1] [%] | EC50 (MX1) [nM] | Papp [2] [×10⁻⁶ cm/s] | CL free (Mus musculus) [mL/min/kg] | Activity [3] [%] | Activity [4] [%] | Activity [5] [%] | Activity [6] [%]
Cn1cc2c3c(c[nH]c(=O)c31)-c1cc(CS(C)(=O)=O)ccc1N(c1ccc(F)cc1)C2 | 92 | 1.4 | 5.1 | 1300 | 100 | 100 | 42 | 90
Cn1cc2c3c(c[nH]c3c1=O)CN(c1ccc(F)cc1F)c1ccc(CS(C)(=O)=O)cc1-2 | 79 | 3.4 | 13 | 750 | 4.6 | 81 | 0 | 67
Cn1cc2c3c(c[nH]c3c1=O)CN(c1ccccn1)c1ccc(CS(C)(=O)=O)cc1-2 | 81 | 1.3 | 6 | 157 | 68 | 67 | 0 | 54
